In US20100324096A1, “Whitening Agent And Skin External Preparation” (SHISEIDO COMPANY LTD., priority 2008, published 2010):

These compounds were tested on Mouse B16 melanoma cells (assay: Melanin production inhibition test). Settings: Mus musculus, 72 h, Table 1, 3 days, minimum non-cytotoxic concentration at which melanin amount was 80% or less, read-out: Inhibitory effect on melanin production.
Format: cell-based
Protocol: A test for melanin production inhibition by the compounds of the formula (1) was conducted. The test method is as follows.
Melanin Production Inhibition Test
(1) Inoculation of Cells and Addition of Test Substances
Mouse B16 melanoma cells were inoculated in a six well plate at 100,000 cells/well. The next day, test substance solutions (solvent: DMSO) were added.
(2) Cell Proliferation Test
Three days after the addition of the test substance solution, the medium was removed by aspiration. Then 1 ml of EMEM medium containing 10% Alamar Blue solution was added, and a reaction was allowed to proceed at 37° C. After 30 minutes, 100 μL of the reaction mixture was transferred to a 96 well plate and fluorescence was measured at an excitation wavelength of 544 nm and a measurement wavelength of 590 nm. Using the value thus measured as a relative value of cell count, a ratio of the cell count (% cell count) of the test substance-added group to the test substance-absent group (group in which only the solvent was added) was calculated. The higher the % cell count, the lower the cytotoxicity. It was determined that a compound having the % cell count of 80% or more was non-cytotoxic, and that a compound having the % cell count of less than 80% was cytotoxic.
(3) Quantification of Melanin
The cells after the cell proliferation test were washed with PBS three times, and then lysed by addition of 200 μL of 1M NaOH to measure an absorbance at 475 nm. Using the value thus measured as a relative value of the melanin amount, a ratio of the melanin amount (%) of the test substance-added group to the test substance-absent group (group in which only the solvent was added) was calculated. The lower the ratio of the melanin amount, the higher the melanin production-inhibitory effect. […] The inhibitory effect on melanin production was evaluated according to the following criteria.
⊚: the minimum concentration for inhibition of melanin production was 1 ppm or less.
◯: the minimum concentration for inhibition of melanin production was more than 1 ppm and 10 ppm or less.
In the case of `c1ccc(Nc2nc(-c3ccccn3)cs2)cc1` [Compound 4], the minimal effective concentration is reported as ≤ 1 µg/mL. `Cc1ccc(Nc2nc(C(C)(C)C)cs2)c(C)c1` [Compound 5] was tested, and the minimal effective concentration was ≤ 1 µg/mL. With `COc1ccc(-c2nc(Nc3c(C)cccc3C)sc2C)cc1` [Compound 7] the minimal effective concentration was ≤ 1 µg/mL. In the case of `Cc1ccccc1Nc1nc(-c2ccccn2)cs1` [Compound 2, 4-(pyridin-2-yl)-N-o-toluylthiazol-2-amine], the minimal effective concentration is reported as ≤ 1 µg/mL. With `CCc1ccccc1Nc1nc(-c2ccc(O)c(O)c2)cs1` [Compound 9] the minimal effective concentration was ≤ 1 µg/mL. In the case of `CCc1ccccc1Nc1nc(-c2ccccn2)cs1` [Compound 3], the minimal effective concentration is reported as ≤ 1 µg/mL. For `CCc1ccccc1Nc1nc(-c2ccc(O)cc2O)cs1` [Compound 10], the minimal effective concentration was ≤ 1 µg/mL. In the case of `Cc1ccccc1Nc1nc(-c2ccncc2)cs1` [Compound 1], the minimal effective concentration is reported as ≤ 1 µg/mL.

Same assay, conditions: Mus musculus, 72 h, Table 3, 3 days, minimum non-cytotoxic concentration at which melanin amount was 80% or less, read-out: Inhibitory effect on melanin production
For `C=C1SC(Nc2ccc(C)cc2C)=NC1(C)C` [Compound 32], the minimal effective concentration was ≤ 1 µg/mL. With `C=CCN(C1=NC(C)(C)C(=C)S1)c1ccc(C)cc1C` [Compound 31] the minimal effective concentration was ≤ 1 µg/mL.

Same assay, conditions: Mus musculus, 72 h, Table 4, 3 days, minimum non-cytotoxic concentration at which melanin amount was 80% or less, read-out: Inhibitory effect on melanin production
With `O=C(Nc1nccs1)C1(c2ccccc2)CCCC1` [Compound 36] the minimal effective concentration was ≤ 1 µg/mL.

Same assay, conditions: Table 1, 3 days, minimum non-cytotoxic concentration at which melanin amount was 80% or less
In the case of `CC(=O)c1sc(Nc2ccccc2C)nc1C` [Compound 6], the “Inhibitory effect on melanin production” value is reported as “∘”. `Cc1cccc(C)c1Nc1nc(-c2ccccc2)cs1` [Compound 8] was tested, and the “Inhibitory effect on melanin production” value was “⊚ (the minimum concentration for inhibition of melanin production was 1 ppm or less.)”.

Same assay, conditions: Table 3, 3 days, minimum non-cytotoxic concentration at which melanin amount was 80% or less
In the case of `Cc1ccccc1NC1=NCC(C)(C)S1` [Compound 28], the “Inhibitory effect on melanin production” value is reported as “⊚ (the minimum concentration for inhibition of melanin production was 1 ppm or less.)”. With `c1ccc(NC2=NCCS2)cc1` [Compound 20] the “Inhibitory effect on melanin production” value was “∘”. `Cc1ccc(NC2=NC(C)CS2)c(C)c1` (centres unmarked) [Compound 27] was tested, and the “Inhibitory effect on melanin production” value was “∘”. With `CCC1CSC(Nc2ccccc2)=N1` (centres unmarked) [Compound 19] the “Inhibitory effect on melanin production” value was “⊚ (the minimum concentration for inhibition of melanin production was 1 ppm or less.)”. For `CC1CN=C(Nc2ccccc2)S1` (centres unmarked) [Compound 21], the “Inhibitory effect on melanin production” value was “⊚ (the minimum concentration for inhibition of melanin production was 1 ppm or less.)”. In the case of `Cc1cc(C)c(NC2=NC(CO)(CO)CS2)c(C)c1` [Compound 30], the “Inhibitory effect on melanin production” value is reported as “∘”. With `COc1cccc(NC2=NC(C)(C)CS2)c1` [Compound 25] the “Inhibitory effect on melanin production” value was “∘”. With `Cc1ccccc1NC1=NCCS1` [Compound 22] the “Inhibitory effect on melanin production” value was “⊚ (the minimum concentration for inhibition of melanin production was 1 ppm or less.)”. With `COc1ccccc1NC1=NC(C)(C)CS1` [Compound 26] the “Inhibitory effect on melanin production” value was “∘”. `COc1ccc(NC2=NC(C)(C)CS2)cc1` [Compound 24] was tested, and the “Inhibitory effect on melanin production” value was “∘”. In the case of `COc1ccccc1NC1=NCCS1` [Compound 23], the “Inhibitory effect on melanin production” value is reported as “⊚ (the minimum concentration for inhibition of melanin production was 1 ppm or less.)”. For `OCC1(CO)CSC(Nc2ccccc2)=N1` [Compound 29], the “Inhibitory effect on melanin production” value was “∘”.

Same assay, conditions: Table 4, 3 days, minimum non-cytotoxic concentration at which melanin amount was 80% or less
For `Cc1ccc(C(=O)Nc2nc(C)cs2)cc1` [Compound 34], the “Inhibitory effect on melanin production” value was “∘”. With `Cc1ccc2oc(Nc3nc(C)cc(O)n3)nc2c1` [Compound 37] the “Inhibitory effect on melanin production” value was “∘”. `O=C(Nc1nc2c(s1)CCCC2)c1ccccc1` [Compound 35] was tested, and the “Inhibitory effect on melanin production” value was “⊚ (the minimum concentration for inhibition of melanin production was 1 ppm or less.)”. In the case of `Cc1nc(NC(C)(C)C)sc1-c1ccccc1` [Compound 33], the “Inhibitory effect on melanin production” value is reported as “⊚ (the minimum concentration for inhibition of melanin production was 1 ppm or less.)”.

Same assay, conditions: Table 5, 3 days, minimum non-cytotoxic concentration at which melanin amount was 80% or less
With `CC1(C)CN=C(NC2CCCCC2)S1` [Compound 39] the “Inhibitory effect on melanin production” value was “∘”. With `CC1(C)CN=C(NCc2ccccc2)S1` [Compound 40] the “Inhibitory effect on melanin production” value was “∘”. For `CC1(C)CN=C(Nc2cccnc2)S1` [Compound 38], the “Inhibitory effect on melanin production” value was “∘”.
